Patent US6841657B2, “Inhibitors of HIV membrane fusion” (priority 1998, dated 2005)
Read-outs that look alike come from different tables or passages of the source. Positions of bridges follow the written chain, without caps; N, C: chain ends. Non-standard residues stand in square brackets, D forms with d.

What was measured:
[1] = target: T1, N36 peptide (Human immunodeficiency virus type 1 group M subtype B, UniProt P04578); format: physicochemical, HIV-1; details: for Tm (apparent melting temperature) of N36/C34 complex: C34 peptide 10 μM + N36 10 μM, phosphate-buffered saline pH 7.0, CD signal at 222 nm; for mean residue ellipticity [θ]222 of N36/C34 complex: CD at 222 nm, 0° C., PBS pH 7.0
T1 construct: made in house; host or cells: chemical peptide synthesis
Protocol: CD measurements were performed in phosphate-buffered saline (50 mM sodium phosphate, 150 mM NaCl, pH 7.0) with an Aviv Model 62DS spectrometer as previously described (M. Lu, S. C. Blacklow, P. S. Kim, Nat. Struct. Biol., 2:1075 (1995)). The apparent melting temperature of each complex was estimated from the maximum of the first derivative of [θ]222 with respect to temperature.
(§1) The apparent melting temperatures (Tm) were estimated from the thermal dependence of the CD signal at 222 nm. Inhibition of viral entry was measured in a cell-culture infection assay using recombinant luciferase-expressing HIV-1. Inhibition of cell-cell fusion was measured in a syncytium assay. The means and standard errors are from triplicate trials.

[2] = system: recombinant luciferase-expressing HIV-1; format: cell-based; details: for IC50: recombinant luciferase-expressing HIV-1, mean ± standard error, triplicate, read-out: IC50 viral entry
Protocol: The potency of C34 peptides in inhibiting viral infection and the HIV-1 infection inhibitory activity of the D-peptides were assayed using recombinant luciferase-expressing HIV-1 (Chen, B. K. et al., J. Virol., 68:654 (1994); Malashkevich, V. N., et al., Proc. Natl. Acad. Sci., USA, 95:9134 (1998)).
as §1

[3] = system: syncytia formation between Chinese hamster ovary cell expressing HXB2 envelope and HeLa-CD4-LTR-Beta-gal cells
Protocol: In each instance, a blocking group (e.g., an acetyl group) was present at the N terminus and a CONH2 (amide) was present at the C-terminus.
Inhibition of cell/cell fusion (i.e., syncytia formation) was assayed by co-culturing Chinese hamster ovary cell expressing HXB2 envelope (K. Kozarsky, et al., J. Acquir. Immune. Defic. Syndr., 2:163 (1989) and the HeLa-CD4-LTR-Beta-gal cells (M. Emerman, NIH AIDS Reagent program) in the presence of varying concentration of peptide. When mixed, these cells form syncytia, or multi-nucleated cells, which express β-galactosidase. Approximately twenty hours after co-culturing the cells, the monolayers were stained with 5-bromo-4-chloro-3-indolyl-β-D-galactoside to visualize the syncytia. The syncytia are visualized with a microscope and counted manually (a syncytia is scored as a fused cell containing three or more nuclei). The IC50 was calculated from fitting the data to a Langmuir equation [y=k/(1+[peptide]/IC50)+x], where y=number of syncytia and k and x are scaling constants.

[4] = system: hydrophobic pocket of IQN17 (gp41); assay: 1H NMR assay of binding to the IQN17 hydrophobic pocket; set-up: species or system HIV-1; details: 1:1 complex with IQN17, 25° C., 100 mM NaCl, 50 mM sodium phosphate pH 7.5, D2O
Source text: NMR experiments were used to assay the binding of each D-peptide to IQN17. The single tryptophan residue of IQN17 (denoted Trp-571) provides an excellent probe of specific binding to the hydrophobic pocket of gp41. […] To test a compound for binding to the gp41 pocket, two one-dimensional ^1H NMR measurements were made on samples in deuterated buffers. First, a reference (control) spectrum of IQN17 was taken, identifying the Trp571 chemical shifts in the unbound form. A second spectrum was acquired on a sample containing both IQN17 and the compound in question. An optional third spectrum of the D-peptide (or other small molecule, or mix of molecules) was also taken. ^1H NMR experiments were performed on a Bruker AMX 500 spectrometer. Data was processed in Felix 98.0 (MSI) on Silicon Graphics computers, and all spectra were referenced to DSS. All experiments were performed at 25° C. in 100 mM NaCl, 50 mM sodium phosphate (pH 7.5). All buffers used were >99.7% D2O, to remove overlapping resonances from exchangeable backbone and side chain protons. Solute concentrations ranged from 0.3-1.0 mM for individual peptides, 0.8-1.0 mM for 1:1 commplexes of IQN17 with each D-peptide.
Simple binding of two or more components is expected to result both in broader peaks (due to the increased size of the complex) and in changes in chemical shifts (due to the different chemical environments experienced by nuclei in free and bound forms). Specific binding to the hydrophobic pocket is indicated by a change in the Trp-571 chemical shifts, as well as by a broadening of peaks. Binding can also be indicated by similar changes in the chemical shifts and peak widths of the molecule (peptides and small organic molecules, for example) assayed. […] All IQN17/D-peptide complexes studied gave similar results, though varying in the degree of chemical shift dispersion (FIG. 9B). Thus, binding was indicated in all cases.
To confirm that the strongly upfield-shifted peaks all correspond to a single sidechain (almost certainly Trp-571), two-dimensional NMR (TOCSY) experiments were performed on each of the IQN17/D-peptide complexes. As expected, the TOCSY experiments indicate that in each complex, the strongly upfield-shifted resonances all belong to the same aromatic side chain, identified as a group of four scalar-coupled protons. For several of the complexes studied, NOESY experiments also indicate contact between this sidechain and other (unassigned) aromatic groups, as expected from the IQN17/D10pep1 structure. Not all of the potential NOE crosspeaks could be resolved, due to intense spectral overlap in the 6.8-7.6 ppm region. 2D NOESY and TOCSY experiments as described in J. Cavanaugh, W. J. Fairbrother, A. G. Palmer, N. J. Skelton, Protein NMR Spectroscopy: Principles and Practice (1996) were performed on samples of IQN17 and of each complex, with mixing times ranging between 30-90 ms (NOESY) and 30-70 ms (TOCSY). Spectral widths of 11,111 Hz and 5555 Hz were used in the acquisition (t2) and indirect (t1) dimensions, respectively. TOCSY experiments employed the DIPSI-2rc mixing sequence (J. Cavanaugh, M. Rance, J. Magn. Reson. Serv. A., 105:328 (1993)).

[5] = read-out: IC50 cell fusion, syncytium assay, mean ± standard error, triplicate

| Molecule | Tm (apparent melting temperature) of N36/C34 complex [1] [°C] | mean residue ellipticity [θ]222 of N36/C34 complex [1] | IC50 [2] [nM] | IC50 [3, 5] [nM] | further results |
| --- | --- | --- | --- | --- | --- |
| CC[C@H](C)[C@H](NC(=O)[C@H](CC(C)C)NC(=O)[C@H](CO)NC(=O)[C@H](Cc1c[nH]cn1)NC(=O)[C@@H](NC(=O)[C@H](CC(C)C)NC(=O)[C@H](CO)NC(=O)[C@@H](NC(=O)[C@H](Cc1ccc(O)cc1)NC(=O)[C@H](CC(N)=O)NC(=O)[C@H](CC(N)=O)NC(=O)[C@@H](NC(=O)[C@H](CCC(=O)O)NC(=O)[C@H](CCCNC(=N)N)NC(=O)[C@H](CC(=O)O)NC(=O)[C@H](C)NC(=O)[C@H](CCC(=O)O)NC(=O)[C@H](CCSC)NC(=O)[C@H](Cc1c[nH]c2ccccc12)NC(C)=O)[C@@H](C)CC)[C@@H](C)O)[C@@H](C)CC)C(=O)N[C@@H](CCC(=O)O)C(=O)N[C@@H](CCC(=O)O)C(=O)N[C@@H](CO)C(=O)N[C@@H](CCC(N)=O)C(=O)N[C@@H](CC(N)=O)C(=O)N[C@@H](CCC(N)=O)C(=O)N[C@@H](CCC(N)=O)C(=O)N[C@@H](CCC(=O)O)C(=O)N[C@@H](CCCCN)C(=O)N[C@@H](CC(N)=O)C(=O)N[C@@H](CCC(=O)O)C(=O)N[C@@H](CCC(N)=O)C(=O)N[C@@H](CCC(=O)O)C(=O)N[C@@H](CC(C)C)C(=O)N[C@@H](CC(C)C)C(N)=O [Trp^631→Ala] | 37 | −24.9 10^3 deg cm^2 dmol^−1 | 40 ± 4.3 |  |  |
| CC[C@H](NC(=O)[C@H](CCC(=O)O)NC(=O)[C@H](CCSC)NC(=O)[C@H](Cc1c[nH]c2ccccc12)NC(C)=O)C(=O)N[C@@H](CC(=O)O)C(=O)N[C@@H](CCCNC(=N)N)C(=O)N[C@@H](CCC(=O)O)C(=O)N[C@H](C(=O)N[C@@H](CC(N)=O)C(=O)N[C@@H](CC(N)=O)C(=O)N[C@@H](Cc1ccc(O)cc1)C(=O)N[C@H](C(=O)N[C@@H](CO)C(=O)N[C@@H](CC(C)C)C(=O)N[C@H](C(=O)N[C@@H](Cc1c[nH]cn1)C(=O)N[C@@H](CO)C(=O)N[C@@H](CC(C)C)C(=O)N[C@H](C(=O)N[C@@H](CCC(=O)O)C(=O)N[C@@H](CCC(=O)O)C(=O)N[C@@H](CO)C(=O)N[C@@H](CCC(N)=O)C(=O)N[C@@H](CC(N)=O)C(=O)N[C@@H](CCC(N)=O)C(=O)N[C@@H](CCC(N)=O)C(=O)N[C@@H](CCC(=O)O)C(=O)N[C@@H](CCCCN)C(=O)N[C@@H](CC(N)=O)C(=O)N[C@@H](CCC(=O)O)C(=O)N[C@@H](CCC(N)=O)C(=O)N[C@@H](CCC(=O)O)C(=O)N[C@@H](CC(C)C)C(=O)N[C@@H](CC(C)C)C(N)=O)[C@@H](C)CC)[C@@H](C)CC)[C@@H](C)O)[C@@H](C)CC [Trp^631→Abu] | 43 | −23.2 10^3 deg cm^2 dmol^−1 |  |  |  |
| Ac-WMEWDAEINNYTSLIHSLIEESQNQQEKNEQELL-NH2 [Arg^633→Ala] | 65 | −30.7 10^3 deg cm^2 dmol^−1 | 2.6 ± 0.89 | 0.76 ± 0.07 | effect of mutation on inhibitory activity of C34 ([2]; HIV-1 viral entry and syncytium assays, vs wildtype C34): little effect |
| Ac-KKGACMRGEWEWSWLCAA-CONH2 (Ac-KKG[dA][dC][dM][dR]G[dE][dW][dE][dW][dS][dW][dL][dC][dA][dA]-NH2; disulfide 5-16 (inferred); not fully specified (residues 1, 2); printed as Ac-KKGACMRGEWEWSWLCAA-CONH2) [Peptide D10pep10] |  |  |  |  | binding to the hydrophobic pocket of IQN17 [4]: contact the pocket with very similar binding interfaces |
| Ac-KKGACPPLNKEWAWLCAA-CONH2 (Ac-KKG[dA][dC][dP][dP][dL][dN][dK][dE][dW][dA][dW][dL][dC][dA][dA]-NH2; disulfide 5-16 (inferred); not fully specified (residues 1, 2); printed as Ac-KKGACPPLNKEWAWLCAA-CONH2) [Peptide D10pep12] |  |  |  |  | binding to the hydrophobic pocket of IQN17 [4]: contact the pocket with very similar binding interfaces |
| Ac-KKKKGACELLGWEWAWLCAA-CONH2 (Ac-KKKKG[dA][dC][dE][dL][dL]G[dW][dE][dW][dA][dW][dL][dC][dA][dA]-NH2; disulfide 7-18 (inferred); not fully specified (residues 1, 2, 3, 4); printed as Ac-KKKKGACELLGWEWAWLCAA-CONH2) [Peptide D10pep5a] |  |  |  |  | IC50 for inhibition of syncytia formation relative to parent peptide without the added lysines ([3]; two additional N-terminal lysines vs parent D-peptide): approximately 2 fold |
| Ac-WMEVDREINNYTSLIHSLIEESQNQQEKNEQELL-NH2 [Trp^631→Val] | 43 | −23.9 10^3 deg cm^2 dmol^−1 | 13 ± 12.8 | 4.5 ± 0.09 |  |
| Ac-WMEFDREINNYTSLIHSLIEESQNQQEKNEQELL-NH2 [Trp^631→Phe] | 59 | −26.3 10^3 deg cm^2 dmol^−1 | 3.61 ± 0.8 | 1.6 ± 0.05 |  |
| Ac-WMEGDREINNYTSLIHSLIEESQNQQEKNEQELL-NH2 [Trp^631→Gly] | 35 | 17.1 10^3 deg cm^2 dmol^−1 | 38 ± 6.1 | 25 ± 3.8 |  |
| Ac-WMEWDREANNYTSLIHSLIEESQNQQEKNEQELL-NH2 [Ile^635→Ala] | 55 | −25.9 10^3 deg cm^2 dmol^−1 | 4.1 ± 0.91 | 0.96 ± 0.12 | decrease in inhibitory activity relative to wildtype C34 ([2]; HIV-1 viral entry and syncytium assays): ~2 fold |
| Ac-WMELDREINNYTSLIHSLIEESQNQQEKNEQELL-NH2 [Trp^631→Leu] | 50 | −26.7 10^3 deg cm^2 dmol^−1 | 5.3 ± 1 | 3.2 ± 0.1 |  |
| CC(=O)N[C@H](CCCCN)C(=O)N[C@H](CCCCN)C(=O)NCC(=O)N[C@H](C)C(=O)N[C@@H]1CSSC[C@H](C(=O)N[C@H](C)C(=O)N[C@H](C)C(N)=O)NC(=O)[C@@H](CC(C)C)NC(=O)[C@@H](Cc2c[nH]c3ccccc23)NC(=O)[C@@H](C)NC(=O)[C@@H](Cc2c[nH]c3ccccc23)NC(=O)[C@@H](CCC(=O)O)NC(=O)[C@@H](Cc2c[nH]c3ccccc23)NC(=O)CNC(=O)[C@@H](CC(C)C)NC(=O)[C@@H](CC(C)C)NC(=O)[C@@H](CCC(=O)O)NC1=O [Peptide D10pep5] |  |  |  |  | inhibition of infection of cells ([2]; infectivity assay): inhibit infection of cells; IC50 ([3]; read-out: IC50 syncytia formation, D-peptide, N-terminal acetyl, C-terminal amide): ~6000 nM |
